# Target: Acetylcholinesterase (Homo sapiens, UniProt P22303)
# Experiment: Acetylcholinesterase Inhibition Assay
# Conditions: pH 8
# Experimental: AChI and 5,5'-dithio-bis(2-nitro-benzoic)acid (DTNB) were used as substrate for this enzymatic reaction. […] Then 50 µL of DTNB (0.5 mM) was transferred. Then the reaction was initiated by the addition of 50 µL of AChI. The hydrolysis of AChI was recorded spectrophotometrically by the formation of yellow 5-thio-2-nitrobenzoate anion as the result of the reaction of DTNB with thiocholine at a wavelength of 412 nm.
# Acetylcholinesterase, sequence (P22303 whole entry): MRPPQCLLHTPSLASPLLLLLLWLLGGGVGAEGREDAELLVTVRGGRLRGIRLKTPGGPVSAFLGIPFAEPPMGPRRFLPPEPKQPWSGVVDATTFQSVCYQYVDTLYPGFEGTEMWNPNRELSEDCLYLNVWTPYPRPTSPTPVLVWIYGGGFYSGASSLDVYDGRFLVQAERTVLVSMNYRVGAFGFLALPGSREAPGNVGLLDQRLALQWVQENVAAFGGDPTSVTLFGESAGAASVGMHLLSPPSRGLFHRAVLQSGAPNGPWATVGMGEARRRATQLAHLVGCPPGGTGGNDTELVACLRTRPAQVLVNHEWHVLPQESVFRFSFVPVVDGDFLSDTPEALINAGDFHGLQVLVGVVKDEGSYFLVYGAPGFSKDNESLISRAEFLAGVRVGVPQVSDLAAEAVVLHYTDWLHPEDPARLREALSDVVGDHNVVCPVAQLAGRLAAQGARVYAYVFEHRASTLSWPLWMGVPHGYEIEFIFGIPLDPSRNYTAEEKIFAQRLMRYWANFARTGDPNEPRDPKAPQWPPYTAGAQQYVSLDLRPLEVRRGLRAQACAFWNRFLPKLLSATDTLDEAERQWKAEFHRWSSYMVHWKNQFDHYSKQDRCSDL
SMILES,IC50,Ki
"COc1cc(C(=O)c2ccccc2)c(OC)cc1Br [(4-Bromo-2,5-dimethoxyphenyl)(phenyl)methanone (16)]",4.68 nM,5.28 nM
"O=C(c1ccc(O)cc1)c1cc(Br)c(O)cc1O [(5-Bromo-2,4-dihydroxyphenyl)(4-hydroxyphenyl)methanone (24)]",4.81 nM,5.72 nM
"O=C(c1ccc(O)cc1)c1cc(O)c(Br)cc1O [(4-Bromo-2,5-dihydroxyphenyl)(4-hydroxyphenyl)methanone (22)]",4.58 nM,2.78 nM
"COc1ccc(C(=O)c2cc(Br)c(OC)cc2OC)cc1 [(5-bromo-2,4-dimethoxyphenyl)(4-methoxyphenyl)methanone (19)]",4.05 nM,3.65 nM
"COc1ccc(C(=O)c2cc(OC)c(Br)cc2OC)cc1 [(4-Bromo-2,5-dimethoxyphenyl)(4-methoxyphenyl)methanone (15)]",4.22 nM,3.77 nM
"COc1ccc(C(=O)c2ccc(OC)cc2OC)cc1 [(2,4-dimethoxyphenyl)(4-methoxyphenyl)methanone (18)]",5.25 nM,5.88 nM
"O=C(c1ccc(O)c(O)c1)c1ccc(O)cc1Br [(2-bromo-4-hydroxyphenyl)(3,4-dihydroxyphenyl)methanone (20)]",4.71 nM,4.06 nM
"COc1ccc(C(=O)c2cccc(OC)c2OC)c(Br)c1 [(2-Bromo-4-methoxyphenyl)(2,3-dimethoxyphenyl)methanone (11)]",4.2 nM,4.34 nM
"O=C(c1ccccc1)c1cc(O)c(Br)cc1O [(4-Bromo-2,5-dihydroxyphenyl)(phenyl)methanone (23)]",4.88 nM,3.24 nM
"COc1ccc(OC)c(Br)c1 [2-bromo-1,4-dimethoxybenzene (14)]",7.21 nM,4.25 nM
"COc1ccc(C(=O)c2ccc(OC)c(OC)c2)c(Br)c1 [(2-bromo-4-methoxyphenyl)(3,4-dimethoxyphenyl)methanone (10)]",4.41 nM,3.53 nM
"O=C(c1ccc(O)cc1Br)c1cccc(O)c1O [(2-Bromo-4-hydroxyphenyl)(2,3-dihydroxyphenyl)methanone (21)]",4.84 nM,3.75 nM

# From BindingDB's records for doi:10.1016/j.bioorg.2015.04.006 (Ataturk University, 2015)
